System: human small cell lung cancer cell NCI-H446
Test: Xenograft model of human small cell lung cancer cell NCI-H446 in nude mice
Type: in vivo, BALB/c nude mice
Conditions: tail vein injection, QW×3, 6 mg·kg^−1

CCc1c2c(nc3ccc(OC(=O)N4CCC(N5CCCCC5)CC4)cc13)-c1cc3c(c(=O)n1C2)COC(=O)[C@]3(O)CC [Irinotecan]
Relative tumor proliferation rate (% T/C): 66.0%

— US12551565B2, “CD44 targeted multi-arm conjugate” (priority 2019, dated 2026)
